# Assay results from the supplement of paper PMC11451515.
# Test system: NOMO1
# Test: cell viability relative to DMSO control; higher = less cytotoxic
# Conditions: 48 h
# Method in brief: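 Viability values are per-plate percentages of DMSO wells, with background from cell-free wells. Library compounds in DMSO were pin-dosed, in an 11-point threefold series from 47 μM to 0.79 nM, onto NOMO1 or SEM (500 cells/well) or P12-Ichikawa (1000 cells/well) leukemia cells in 1536-well plates (5 μl). Those cells had been adapted for at least four passages in each medium, and CellTiter-Glo One luminescence was read after 48 h at 37°C.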
# [1] = HPLM + 10% dialyzed FBS, 0.000781 µM
# [2] = HPLM + 10% dialyzed FBS, 0.00234 µM
# [3] = HPLM + 10% dialyzed FBS, 0.00702 µM
# [4] = HPLM + 10% dialyzed FBS, 0.0211 µM
# [5] = HPLM + 10% dialyzed FBS, 0.0632 µM
# [6] = HPLM + 10% dialyzed FBS, 0.19 µM
# [7] = HPLM + 10% dialyzed FBS, 0.569 µM
# [8] = HPLM + 10% dialyzed FBS, 1.71 µM
# [9] = HPLM + 10% dialyzed FBS, 5.12 µM
# [10] = HPLM + 10% dialyzed FBS, 15.4 µM
# [11] = HPLM + 10% dialyzed FBS, 46.1 µM
# [12] = RPMI 5 mM glucose + 10% FBS, 0.000781 µM
# [13] = RPMI 5 mM glucose + 10% FBS, 0.00234 µM
# [14] = RPMI 5 mM glucose + 10% FBS, 0.00702 µM
# [15] = RPMI 5 mM glucose + 10% FBS, 0.0211 µM
# [16] = RPMI 5 mM glucose + 10% FBS, 0.0632 µM
# [17] = RPMI 5 mM glucose + 10% FBS, 0.19 µM
# [18] = RPMI 5 mM glucose + 10% FBS, 0.569 µM
# [19] = RPMI 5 mM glucose + 10% FBS, 1.71 µM
# [20] = RPMI 5 mM glucose + 10% FBS, 5.12 µM
# [21] = RPMI 5 mM glucose + 10% FBS, 15.4 µM
# [22] = RPMI 5 mM glucose + 10% FBS, 46.1 µM
# [23] = RPMI 5 mM glucose + 10% dialyzed FBS, 0.000781 µM
# [24] = RPMI 5 mM glucose + 10% dialyzed FBS, 0.00234 µM
# [25] = RPMI 5 mM glucose + 10% dialyzed FBS, 0.00702 µM
# [26] = RPMI 5 mM glucose + 10% dialyzed FBS, 0.0211 µM
# [27] = RPMI 5 mM glucose + 10% dialyzed FBS, 0.0632 µM
# [28] = RPMI 5 mM glucose + 10% dialyzed FBS, 0.19 µM
# [29] = RPMI 5 mM glucose + 10% dialyzed FBS, 0.569 µM
# [30] = RPMI 5 mM glucose + 10% dialyzed FBS, 1.71 µM
# [31] = RPMI 5 mM glucose + 10% dialyzed FBS, 5.12 µM
# [32] = RPMI 5 mM glucose + 10% dialyzed FBS, 15.4 µM
# [33] = RPMI 5 mM glucose + 10% dialyzed FBS, 46.1 µM
Compound,cell viability [1],cell viability [2],cell viability [3],cell viability [4],cell viability [5],cell viability [6],cell viability [7],cell viability [8],cell viability [9],cell viability [10],cell viability [11],cell viability [12],cell viability [13],cell viability [14],cell viability [15],cell viability [16],cell viability [17],cell viability [18],cell viability [19],cell viability [20],cell viability [21],cell viability [22],cell viability [23],cell viability [24],cell viability [25],cell viability [26],cell viability [27],cell viability [28],cell viability [29],cell viability [30],cell viability [31],cell viability [32],cell viability [33]
C[N+]1(C)[C@@H]2C[C@@H](OC(=O)[C@H](CO)c3ccccc3)C[C@H]1[C@@H]1O[C@@H]12.[Br-],91.9%,95.1%,108%,113%,105%,99.4%,86.5%,93.5%,99.5%,89.2%,101%,95.5%,91.8%,86.6%,89.4%,85%,88.5%,86.9%,90.3%,90.4%,86.1%,86.8%,83%,90.5%,86.9%,91%,91.6%,90.8%,91.6%,97.2%,107%,89%,98.7%
C=CC1=C(C(=O)O)N2C(=O)[C@@H](NC(=O)/C(=N\O)c3csc(N)n3)[C@H]2SC1,82.9%,110%,119%,102%,123%,109%,129%,129%,110%,113%,118%,104%,119%,124%,118%,117%,127%,116%,120%,125%,134%,138%,98.2%,105%,115%,118%,119%,125%,140%,124%,121%,109%,107%
CC1=C(C=CC=C1)N2\C(=N/C3=C(C(=CC=C3)C)C2=O)C[N]4N=CC5=C4N=CN=C5N,114%,116%,147%,133%,148%,147%,49.6%,44.3%,40%,38.5%,35.2%,122%,126%,121%,143%,125%,129%,33.4%,26%,26.2%,22.9%,22.7%,,,,,,,,,,,
CCOc1cc(N)c(Cl)cc1C(=O)NCC1CN(Cc2ccc(F)cc2)CCO1 (configuration not stated),85.2%,120%,125%,118%,119%,120%,102%,120%,128%,111%,107%,102%,115%,106%,108%,114%,108%,106%,113%,122%,109%,104%,113%,115%,122%,118%,116%,111%,125%,112%,111%,107%,107%
CC\1=C(C(=O)N(\C=C1)C2=CC=C(C=C2)C3=NC=CO3)/C4=CC5=CN=C(N)N=C5C=C4,98.8%,107%,126%,112%,108%,117%,122%,122%,123%,108%,94.9%,97%,103%,96.1%,104%,112%,116%,114%,107%,124%,113%,100%,99.1%,89.6%,103%,119%,123%,107%,108%,101%,107%,117%,90%
N=C(N)NC(=O)c1nc(Cl)c(N)nc1N,110%,114%,132%,133%,134%,130%,133%,54.1%,35.8%,35%,36.9%,,,,,,,,,,,,112%,134%,123%,134%,133%,129%,136%,72.5%,33.3%,29.2%,29.1%
CCN(CC)CCCCNc1nc2cc(Cl)c(Cl)cc2nc1-c1ccc(-c2cccs2)s1,101%,124%,123%,128%,111%,137%,137%,121%,138%,98.4%,3.87%,97%,103%,111%,115%,123%,119%,123%,102%,117%,113%,5.9%,98.3%,112%,108%,112%,110%,119%,114%,108%,112%,108%,5.42%
CN(C)C(=O)c1ccc([S+](=O)([O-])c2ccc(NC(=O)[C@@](C)(O)C(F)(F)F)c(Cl)c2)cc1,104%,104%,114%,123%,95.9%,128%,126%,105%,91.3%,33%,10.2%,104%,109%,102%,105%,114%,101%,112%,99.4%,105%,38.7%,13.5%,95.9%,109%,116%,118%,108%,104%,104%,91.2%,99.8%,89.7%,60.4%
